Laboratory results taken from PubChem BioAssay (NCI).
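Cultured in 96-well plates, cells were exposed to test compound for 48 hours across five concentrations. GI50: concentration for 50% inhibition of growth. At the TGI there is no net growth.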

System: MDA-MB-468 breast
Experiment: growth of human tumour cells (NCI), 48 h

`CC(=O)N1N=C(c2ccc(Nc3nc(Nc4ccc(F)cc4)nc(Nc4ccc(Cl)cc4)n3)cc2)CC1c1ccc(N(C)C)cc1` (stereo unspecified) gave a GI50 of 5.61 µM and a TGI of 33.8 µM.

`N=C1N=C(N)S/C1=C\c1ccc2ncccc2c1` was tested, and the GI50 was greater than 25 µM and the TGI was greater than 25 µM.

`NC(=S)N/N=C/c1ccc(OC(=O)COc2ccccc2)cn1` showed a GI50 of 2.31 µM and a TGI of 7.33 µM.

Work on `Cc1nc2ccccc2c(/C=C/c2ccccc2)c1C(=O)/C=C/c1ccc(Cl)cc1` yielded a GI50 of 1.56 µM and a TGI of 3.15 µM.

For `O=C(O)c1cc2cc(O)ccc2[nH]1`, the GI50 was greater than 100 µM and the TGI was greater than 100 µM.

For `C[n+]1cc2cc3c(cc2c2ccccc21)OCO3`, the GI50 was 0.503 µM and the TGI was 3.45 µM.

`NS(=O)(=O)c1cccc(Nc2nc(SCC(=O)c3ccc([N+](=O)[O-])cc3)nc3ccccc23)c1` showed a GI50 of 15.6 µM and a TGI of 43.4 µM.

`C[C@@H]1CC[C@@H]2[C@@H]1[C@H](OC(=O)c1ccc3ccccc3c1)[C@]1(C3CCCCC3)C[C@@H](OC(=O)CO)[C@@]2(C)O1` was tested, and the GI50 was 10.7 µM and the TGI was 26.2 µM.

`COc1ccc(Nc2ncc(-c3ccccc3)o2)cc1OC` showed a GI50 greater than 11.6 µM and a TGI greater than 25 µM.

In the case of `N#CSCC1CC(O)(c2ccccc2)CC(c2ccc(Cl)cc2)O1` (stereo unspecified), the GI50 is reported as 5.07 µM and the TGI is reported as 12.9 µM.

With `O=C(c1ccccc1)c1ccc(O)c2ncccc12` the GI50 was 2.41 µM and the TGI was 7.75 µM.

Compound `O=C1Nc2ccc(CN3CCOC3=O)cc2/C1=C/c1cc(CN2CCOCC2)c[nH]1` has a GI50 of 20.7 µM and a TGI of 73.3 µM.

`CC(=O)[O][Hg][CH2]C1(C)COC(C)([CH2][Hg][O]C(C)=O)CO1` (stereo unspecified) was tested, and the GI50 was 1.97 µM and the TGI was 4.12 µM.

`COc1ccc(C2CC(c3cccc(OC)c3)=NN2C(=O)c2cc(OC)c(OC)c(OC)c2)cc1` (stereo unspecified) was tested, and the GI50 was 0.484 µM and the TGI was greater than 100 µM.

In the case of `Clc1ccc(N/N=C(\c2ccccc2)c2ccccn2)nc1`, the GI50 is reported as 0.0313 µM and the TGI is reported as 0.316 µM.

Work on `O=C(Nc1cc(C(F)(F)F)cc(C(F)(F)F)c1)Nc1ccc(OCc2nnc(-c3ccc(Cl)cc3)o2)c(F)c1` yielded a GI50 of 1 µM and a TGI of 4.17 µM.

`COc1cc2oc(-c3cccc(C(=O)Nc4ccc(C)cc4)c3)cc(=O)c2c(OC)c1OC` was tested, and the GI50 was 3.88 µM and the TGI was 24.6 µM.

`CC(=O)Oc1ccccc1C(=O)NCCC[Se]C#N` was tested, and the GI50 was 3.19 µM and the TGI was 15.6 µM.

`CC(=O)OC1CC2(O)C(CCC3(C)C(c4ccc(=O)oc4)CCC32O)C2(C)CCC(OC3OC(CO)C(O)C(O)C3O)C=C12` (stereo unspecified) showed a GI50 of 0.0611 µM and a TGI of 0.338 µM.

Compound `c1ccc2c(-c3cnn4cc(-c5ccc(N6CCNCC6)cc5)cnc34)ccnc2c1` has a GI50 of 0.335 µM and a TGI of 1.54 µM.

In the case of `C=C1[C@@H](O)C[C@H]2C(C)(C)C[C@H](Cl)C[C@]2(C)[C@H]1C[C@H](O)[C@H]1CC(=O)NC1=O`, the GI50 is reported as 0.0138 µM and the TGI is reported as 0.124 µM.

`O=C1c2ccccc2C(=O)c2sc(Nc3ccc(Cl)cc3)nc21` showed a GI50 of 1.98 µM and a TGI of 4.68 µM.

`CCOC(=O)Nc1ccc(C(=O)/C=C/c2ccccc2)cc1` showed a GI50 of 25.2 µM and a TGI greater than 100 µM.

With `CCCCCCCCc1ccc(CCC(N)(CO)CO)cc1` the GI50 was 1.63 µM and the TGI was 3.05 µM.

For `O=C(NCCNC(=O)c1ccc(F)cc1)Nc1ccc(-n2cc(-c3ccncc3)c(-c3ccc(Cl)c(O)c3)n2)cc1`, the GI50 was 0.297 µM and the TGI was 1.65 µM.

`CNC12C3C4C1C1C2C3C41C(=O)N[C@H](C(=O)N(C)[C@H](C[C@@H](OC(C)=O)c1nc(C(=O)N[C@@H](Cc2ccccc2)C[C@H](C)C(=O)OC)cs1)C(C)C)C1CC1` (stereo partly specified) gave a GI50 of 0.0705 µM and a TGI of 1.37 µM.

Work on `C=C1C(=O)O[C@H]2[C@H]1CC/C(COC(=O)C(=O)c1c[nH]c3ccc(Cl)cc13)=C\CC[C@@]1(C)O[C@@H]21` yielded a GI50 of 0.353 µM and a TGI of 1.06 µM.

Compound `C#C[C@]1(O)CC[C@H]2[C@@H]3CC=C4c5sc(-c6ccc7c(c6)OCO7)nc5CC[C@]4(C)[C@H]3CC[C@@]21C` has a GI50 of 2.96 µM and a TGI of 10 µM.

`OCc1ncc(-c2ccccc2)s1` showed a GI50 greater than 100 µM and a TGI greater than 100 µM.

Work on `Cc1ccc(NC(=O)N2CCCCC2)cc1[N+](=O)[O-]` yielded a GI50 greater than 100 µM and a TGI greater than 100 µM.

Work on `CC1=C/C(O)CC(=O)Cc2nc(co2)C(=O)N2CCC=C2C(=O)OC(C(C)C)C(C)/C=C\C(=O)NC/C=C\1` (stereo unspecified) yielded a GI50 of 11.4 µM and a TGI of 27.5 µM.

For `Clc1ccc(-c2nc(C(Cl)Cl)nc3cc(-c4ccccc4)nn23)cc1`, the GI50 was 0.772 µM and the TGI was 2.15 µM.

With `O=C(Nc1nc(-c2ccccc2)cs1)c1cc(O)c(O)c(O)c1` the GI50 was 2.46 µM and the TGI was 12.7 µM.

Work on `CCOc1ccc(NC(=O)c2cc3ccccc3cc2O)cc1` yielded a GI50 of 64.6 µM and a TGI greater than 100 µM.

`CNC(C)[C@H]1CCC2C3CCC4C[C@@H](N(C)C(=O)c5ccccc5)CC[C@]4(C)C3CC[C@@]21C` (stereo partly specified) gave a GI50 of 0.854 µM and a TGI of 2.72 µM.

For `CC(C)c1ccc(/C=N/N=C(N)N)cc1`, the GI50 was 1.85 µM and the TGI was 5.07 µM.

Compound `CN(C)c1cccc(/C=C(\C#N)c2ccccc2)c1` has a GI50 of 0.402 µM and a TGI of 36.8 µM.

`COC(=O)c1ccc(NC(N)=NCC(C)(C)COc2ccc(C(F)(F)F)cc2)nc1` gave a GI50 of 1.06 µM and a TGI of 2.73 µM.
